Each structure is given as a SMILES string.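 Method: 48-hour compound exposure of cells in 96-well plates, five concentrations, linear interpolation of endpoints. GI50 marks 50% less growth. At the TGI there is no net growth.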

The results in this text go back to PubChem BioAssay (NCI).

Common to all, as to experiment: NCI-60 cell line screen, 48 h
For assay [1], the system named is IGROV1 ovarian.
The subject of assay [2] is OVCAR-4 ovarian.
The test system of assay [3] is MCF7 breast.
For assay [4], the system named is BT-549 breast.
The test system of assay [5] is UO-31 renal.
Assay [6] concerns SF-539 CNS.
Assay [7] relates to SK-MEL-28 melanoma.
Assay [8] relates to KM12 colon.
The subject of assay [9] is 786-0 renal.
Assay [10] has as its system OVCAR-8 ovarian.

For the compound `CC(C)NCCCCCNc1cc(O)cc2cccnc12`, the GI50 in assay [1] is 4.81 µM; in assay [2], 4.14 µM; in assay [3], 18.7 µM; in assay [4], greater than 37.7 µM; in assay [5], 85.2 µM; in assay [6], greater than 100 µM. Moreover, the GI50 in assay [7], in assay [8], in [9] and in assay [10] was greater than 100 µM throughout. Further, the TGI in assay [1], in assay [2], in [3], in assay [4], in [5] and in assay [6] was greater than 100 µM throughout. For the same compound, the TGI in assay [7], in [8], in [9] and in assay [10] was greater than 100 µM in each case.
Turning to `C/C=C(\C)C(=O)OC1C2C(C)C(=O)OC2C(O)C(C)C2C=CC(=O)C21C` (stereo unspecified), the TGI in assay [1] was 25.5 µM; in [2], greater than 74.7 µM; in assay [3], 21.6 µM; in assay [4] it was 25.2 µM; in assay [5], 32.8 µM; in assay [6], 36.4 µM. Moreover, the TGI in assay [7] was 28.1 µM; in assay [8] it was 30.3 µM; in assay [9], 30.3 µM; in [10] it was 34.8 µM.
As for `CCNC(=O)c1ccc2c(c1)nc(-c1ccc(Cl)cc1)n2-c1cc(C(C)(C)C)[nH]n1`, the GI50 is 5.22 µM in assay [1]; 5.43 µM in assay [2]; 2.68 µM in assay [3]; 4.53 µM in assay [4]; 3.46 µM in assay [5]; 3 µM in assay [6]. Moreover, the GI50 was 2.78 µM in [7], 3.12 µM in assay [8], 3.48 µM in assay [9] and 3.06 µM in [10]. In addition, the TGI in assay [1] was 64.8 µM; in assay [2], greater than 100 µM; in assay [3], 10.5 µM; in [4] it was 18.2 µM; in assay [5] it was 44.5 µM; in assay [6] it was 11 µM. Further, the TGI in assay [7] stood at 11.7 µM; in assay [8], 36.8 µM; in assay [9] it was 47.4 µM; in assay [10], 13.4 µM.
As to `O=C(Nc1cccc(-n2cc(-c3ccncc3)c(-c3ccc(O)c(Cl)c3)n2)c1)c1ccc(N2CCOCC2)c(C(F)(F)F)c1`, the GI50 in [1] is greater than 50 µM; in [2], greater than 50 µM; in [3], 2.03 µM; in assay [4], 2.35 µM; in assay [5], 2.99 µM; in assay [6], 1.04 µM. For the same compound, the GI50 in [7] is 3.75 µM; in assay [8], 1.12 µM; in [9], 0.982 µM; in [10], 2.24 µM. The TGI in assay [1], in [2], in [3], in assay [4], in assay [5] and in assay [6] was greater than 50 µM each time. The TGI in assay [7], in assay [8], in assay [9] and in assay [10] was greater than 50 µM throughout.
With `O=C(NCc1cccs1)OC1CC2CCC1C2` (stereo unspecified), the TGI in assay [1], in assay [2], in assay [3], in [4], in assay [5] and in assay [6] was greater than 100 µM each time. Moreover, the TGI in assay [7], in [8], in assay [9] and in assay [10] was greater than 100 µM throughout.
Turning to `COC(=O)c1cc(NC(=O)CN(CCN(CC(=O)O)CC(=O)Nc2ccc(O)c(C(=O)OC)c2)CC(=O)O)ccc1O`, the GI50 was greater than 100 µM in [1]; greater than 100 µM in assay [2]; 33.5 µM in [3]; 52.1 µM in [4]; 42.7 µM in assay [5]; 29.4 µM in assay [6]. For the same compound, the GI50 in assay [7] was greater than 100 µM; in assay [8], greater than 100 µM; in assay [9], 35.2 µM; in assay [10], 77.3 µM. Moreover, the TGI in assay [1], in assay [2], in assay [3], in [4], in assay [5] and in assay [6] was greater than 100 µM throughout. Besides, the TGI in [7], in [8], in assay [9] and in assay [10] was greater than 100 µM in each case.
As for `CCCCC/C=C\C/C=C/CCCCCCCCNC(=O)Nc1ccc([N+](=O)[O-])cc1`, the GI50 in [1] is 26.4 µM; in assay [2], 13.5 µM; in assay [3] it was 23.7 µM; in assay [4] it was 28.2 µM; in assay [5], 24.3 µM; in assay [6], 41.4 µM. Moreover, the GI50 in assay [7] was 32.7 µM; in assay [8], 6.96 µM; in assay [9] it was 29.5 µM; in [10], 8.82 µM. Also, the TGI in assay [1] was greater than 100 µM; in assay [2] it was greater than 100 µM; in assay [3], greater than 100 µM; in [4] it was 65.3 µM; in assay [5], greater than 100 µM; in assay [6], greater than 100 µM. The TGI in assay [7], in [8], in assay [9] and in assay [10] was greater than 100 µM throughout.
As to `CS(=O)(=O)c1ccc(-c2[nH]c3ccc(F)cc3c2/C=N/NC(N)=S)cc1`, the GI50 in [1] was 4.95 µM; in assay [2] it was 13.4 µM; in assay [3] it was 2.1 µM; in [4] it was 1.61 µM; in assay [5], 2.84 µM; in assay [6], 1.3 µM. Also, the GI50 in [7] is 12.3 µM; in assay [8], 0.73 µM; in assay [9], 0.605 µM; in assay [10], 2.76 µM. For the same compound, the TGI in [1] is greater than 100 µM; in assay [2], greater than 100 µM; in assay [3], 18.7 µM; in assay [4] it was 34.4 µM; in assay [5] it was greater than 100 µM; in assay [6], greater than 100 µM. Besides, the TGI was greater than 100 µM in assay [7], 28.8 µM in assay [8], greater than 100 µM in [9] and greater than 100 µM in [10].
Turning to `CCCC(=O)Nc1ncnc2c1ncn2C1OC2COP(=O)(O)OC2C1OC(=O)CCC` (stereo unspecified), the GI50 in [1], in assay [2], in assay [3], in assay [7], in assay [8] and in assay [9] was greater than 1000 µM in each case. Moreover, the GI50 in [10] was greater than 1000 µM. Further, the TGI in assay [2], in [3], in assay [4], in assay [5], in assay [6] and in assay [7] was greater than 1000 µM each time. Besides, the TGI in assay [8], in [9] and in [10] was greater than 1000 µM throughout.
As to `O=c1cc(-c2ccccc2)nc2cc(-c3ccco3)[nH]n12`, the GI50 in [1] is 7.91 µM; in assay [2], 23 µM; in assay [3], 0.554 µM; in [4], 14.8 µM; in assay [5] it was 7.92 µM; in assay [6] it was 13.3 µM. For the same compound, the GI50 in [7] is 8.78 µM; in [8] it was 3.26 µM; in assay [9] it was 31 µM; in [10] it was 18 µM. The TGI in assay [1] is 60 µM; in [2] it was greater than 100 µM; in assay [3] it was greater than 100 µM; in assay [4] it was greater than 100 µM; in assay [5], 59.8 µM; in [6], 78.9 µM. Also, the TGI in assay [7] was greater than 100 µM; in [8], 50.6 µM; in assay [9], greater than 100 µM; in assay [10] it was greater than 100 µM.
